Measurements reported in US10428017B2, “Modulators of the cystic fibrosis transmembrane conductance regulator protein and methods of use” (AbbVie S.à.r.l., priority 2017, dated 2019).
Where two headings read alike, the source gives them in different places.

Molecular target: T1, F508delCFTR (Homo sapiens, UniProt P13569, DEL508-508)
T1 construct: expressed in transfected cells; host or cells: CFBE4lo-F508delCFTR-HRP cells (human lung derived epithelial cell line, doxycycline-inducible)
Assay: Cell Surface Expression-Horse Radish Peroxidase (CSE-HRP) Assay
Format: cell-based
Details: for EC50: CFBE4lo-F508delCFTR-HRP cells, 18-24 hours at 33° C.; for Emax / Maximum % activity (with co-corrector): maximum at any tested concentration (up to 20 μM), normalized to on-plate positive control (2 μM co-corrector); for Maximum % activity (with co-corrector): with co-corrector 2 μM
Summary of the method: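 Surface F508delCFTR measured via exofacial-loop HRP luminescence (luminol) in doxycycline-induced (0.5 μg/mL, 72 h) CFBE4lo− cells. Compounds, 20 μM top, 3-fold, 8 concentrations, ±2 μM co-corrector, incubated 18-24 h at 33° C; EC50 by variable-slope sigmoidal fit of % activity relative to positive control, three replicate plates.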

[1] = test compound without co-corrector, HRP luminescence readout, read-out: EC50 (without co-corrector)
[2] = test compound without co-corrector
[3] = with co-corrector 2 μM 3-[(2R,4R)-4-({[1-(2,2-difluoro-1,3-benzodioxol-5-yl)cyclopropyl]carbonyl}amino)-7-methoxy-3,4-dihydro-2H-chromen-2-yl]benzoic acid, read-out: EC50 (with co-corrector)

T1 sequence (P13569 with tags, fused parts or gaps DEL508-508): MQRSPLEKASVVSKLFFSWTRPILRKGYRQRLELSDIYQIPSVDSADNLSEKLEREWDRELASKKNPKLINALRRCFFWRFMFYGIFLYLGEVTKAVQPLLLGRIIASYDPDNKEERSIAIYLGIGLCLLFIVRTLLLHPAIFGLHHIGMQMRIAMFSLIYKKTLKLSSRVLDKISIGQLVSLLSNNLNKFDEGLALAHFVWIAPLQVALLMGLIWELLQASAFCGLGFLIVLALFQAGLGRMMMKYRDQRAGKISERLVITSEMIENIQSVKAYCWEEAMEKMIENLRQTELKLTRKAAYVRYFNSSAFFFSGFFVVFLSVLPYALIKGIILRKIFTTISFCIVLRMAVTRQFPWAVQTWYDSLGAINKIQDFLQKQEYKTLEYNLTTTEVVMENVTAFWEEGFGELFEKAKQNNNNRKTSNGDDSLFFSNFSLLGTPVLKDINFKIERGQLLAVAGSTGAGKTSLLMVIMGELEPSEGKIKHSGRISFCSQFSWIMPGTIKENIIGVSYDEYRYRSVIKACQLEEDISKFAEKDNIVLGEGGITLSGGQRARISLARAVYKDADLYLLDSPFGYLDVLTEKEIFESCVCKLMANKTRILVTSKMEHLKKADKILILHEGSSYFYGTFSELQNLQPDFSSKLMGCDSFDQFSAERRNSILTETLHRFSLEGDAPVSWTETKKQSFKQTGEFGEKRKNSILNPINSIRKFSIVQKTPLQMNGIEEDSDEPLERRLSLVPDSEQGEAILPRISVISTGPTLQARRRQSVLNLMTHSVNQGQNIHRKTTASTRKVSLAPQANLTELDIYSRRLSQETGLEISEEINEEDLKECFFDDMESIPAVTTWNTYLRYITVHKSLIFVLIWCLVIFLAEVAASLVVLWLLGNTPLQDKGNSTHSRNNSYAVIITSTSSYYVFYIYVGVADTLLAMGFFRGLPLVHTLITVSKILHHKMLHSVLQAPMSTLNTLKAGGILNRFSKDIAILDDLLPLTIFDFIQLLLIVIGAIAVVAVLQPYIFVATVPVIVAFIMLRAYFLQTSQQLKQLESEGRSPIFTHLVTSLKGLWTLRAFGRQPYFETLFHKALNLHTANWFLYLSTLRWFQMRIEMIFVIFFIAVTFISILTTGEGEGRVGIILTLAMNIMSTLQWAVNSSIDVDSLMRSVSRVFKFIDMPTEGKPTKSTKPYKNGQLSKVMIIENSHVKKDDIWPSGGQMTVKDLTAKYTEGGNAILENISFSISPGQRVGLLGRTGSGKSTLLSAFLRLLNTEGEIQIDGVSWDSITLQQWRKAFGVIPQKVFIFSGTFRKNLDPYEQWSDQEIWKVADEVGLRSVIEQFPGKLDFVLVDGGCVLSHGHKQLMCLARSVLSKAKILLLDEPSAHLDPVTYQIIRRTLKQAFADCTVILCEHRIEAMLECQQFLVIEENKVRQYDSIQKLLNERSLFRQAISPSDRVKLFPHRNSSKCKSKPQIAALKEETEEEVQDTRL

COc1ccc(C2CCC2)c2c1C(C(=O)NS(=O)(=O)c1cccc3ncccc13)OCC2 (stereo not shown) [Example 81, 5-cyclobutyl-8-methoxy-N-(quinoline-5-sulfonyl)-3,4-dihydro-1H-2-benzopyran-1-carboxamide]
EC50 [1]: 3 to 10 µM | Emax [2]: ≥ 150% | EC50 [3]: < 3 µM | Maximum % activity (with co-corrector): +++ (≥350)

COc1ccc(C2CCC2)c2c1C(C(=O)NS(=O)(=O)c1cccc3c1CCCN3)CCO2 (stereo not shown) [Example 85, 8-cyclobutyl-5-methoxy-N-(1,2,3,4-tetrahydroquinoline-5-sulfonyl)-3,4-dihydro-2H-1-benzopyran-4-carboxamide]
EC50 [1]: < 3 µM | Emax [2]: ≥ 150% | EC50 [3]: < 3 µM | Maximum % activity (with co-corrector): +++ (≥350)

COc1ccc(C2CCC2)c2c1[C@H](C(=O)NS(=O)(=O)c1cccc3ncccc13)CC(C)(C)O2 [Example 86, (4R)-8-cyclobutyl-5-methoxy-2,2-dimethyl-N-(quinoline-5-sulfonyl)-3,4-dihydro-2H-1-benzopyran-4-carboxamide]
EC50 [1]: < 3 µM | Emax [2]: ≥ 150% | EC50 [3]: < 3 µM | Maximum % activity (with co-corrector): +++ (≥350)

COc1ccc(C2CCC2)c2c1C(C(=O)NS(=O)(=O)c1cccc3ncn(C)c13)CO2 (stereo not shown) [Example 87, 7-cyclobutyl-4-methoxy-N-(1-methyl-1H-benzimidazole-7-sulfonyl)-2,3-dihydro-1-benzofuran-3-carboxamide]
EC50 [1]: < 3 µM | Emax [2]: ≥ 150% | EC50 [3]: < 3 µM | Maximum % activity (with co-corrector): +++ (≥350)

COc1ccc(C2CCC2)c2c1C(C(=O)NS(=O)(=O)c1cccn3nccc13)CO2 (stereo not shown) [Example 88, 7-cyclobutyl-4-methoxy-N-(pyrazolo[1,5-a]pyridine-4-sulfonyl)-2,3-dihydro-1-benzofuran-3-carboxamide]
EC50 [1]: 3 to 10 µM | Emax [2]: ≥ 150% | EC50 [3]: < 3 µM | Maximum % activity (with co-corrector): +++ (≥350)

COc1ccc(C2CCC2)c2c1C(C(=O)NS(=O)(=O)c1cccc3c1NCCC3)CO2 (stereo not shown) [Example 90, 7-cyclobutyl-4-methoxy-N-(1,2,3,4-tetrahydroquinoline-8-sulfonyl)-2,3-dihydro-1-benzofuran-3-carboxamide]
EC50 [1]: 3 to 10 µM | Emax [2]: ≥ 150% | EC50 [3]: < 3 µM | Maximum % activity (with co-corrector): +++ (≥350)

COc1ccc(C2CCC2)c2c1[C@@H](C(=O)NS(=O)(=O)c1cccc3c1CCCN3)CCO2 [Example 91, (4S)-8-cyclobutyl-5-methoxy-N-(1,2,3,4-tetrahydroquinoline-5-sulfonyl)-3,4-dihydro-2H-1-benzopyran-4-carboxamide]
EC50 [1]: 3 to 10 µM | Emax [2]: ≥ 150% | EC50 [3]: 3 to 10 µM | Maximum % activity (with co-corrector): +++ (≥350)

COc1ccc(C2CCC2)c2c1[C@H](C(=O)NS(=O)(=O)c1cccc3c1CCCN3)CCO2 [Example 92, (4R)-8-cyclobutyl-5-methoxy-N-(1,2,3,4-tetrahydroquinoline-5-sulfonyl)-3,4-dihydro-2H-1-benzopyran-4-carboxamide]
EC50 [1]: < 3 µM | Emax [2]: ≥ 150% | EC50 [3]: < 3 µM | Maximum % activity (with co-corrector): +++ (≥350)

COc1ccc(C2CCC2)c2c1C(C(=O)NS(=O)(=O)c1cccc3c1CCCN3)CC(C)(C)O2 (stereo not shown) [Example 93, 8-cyclobutyl-5-methoxy-2,2-dimethyl-N-(1,2,3,4-tetrahydroquinoline-5-sulfonyl)-3,4-dihydro-2H-1-benzopyran-4-carboxamide]
EC50 [1]: < 3 µM | Emax [2]: ≥ 150% | EC50 [3]: < 3 µM | Maximum % activity (with co-corrector): +++ (≥350)

COc1ccc(C2CCC2)c2c1[C@H](C(=O)NS(=O)(=O)c1cccc3cnn(C)c13)CO2 [Example 95, (3S)-7-cyclobutyl-4-methoxy-N-(1-methyl-1H-indazole-7-sulfonyl)-2,3-dihydro-1-benzofuran-3-carboxamide]
EC50 [1]: < 3 µM | Emax [2]: ≥ 150% | EC50 [3]: < 3 µM | Maximum % activity (with co-corrector): +++ (≥350)

COc1ccc(C2CCC2)c2c1[C@@H](C(=O)NS(=O)(=O)c1cccc3c1CCCN3)CC(C)(C)O2 [Example 96, (4S)-8-cyclobutyl-5-methoxy-2,2-dimethyl-N-(1,2,3,4-tetrahydroquinoline-5-sulfonyl)-3,4-dihydro-2H-1-benzopyran-4-carboxamide]
EC50 [1]: < 3 µM | Emax [2]: ≥ 150% | EC50 [3]: < 3 µM | Maximum % activity (with co-corrector): +++ (≥350)

COc1ccc(C2CCC2)c2c1[C@H](C(=O)NS(=O)(=O)c1cccc3c1NCCC3)CO2 [Example 99, (3S)-7-cyclobutyl-4-methoxy-N-(1,2,3,4-tetrahydroquinoline-8-sulfonyl)-2,3-dihydro-1-benzofuran-3-carboxamide]
EC50 [1]: < 3 µM | Emax [2]: ≥ 150% | EC50 [3]: < 3 µM | Maximum % activity (with co-corrector): +++ (≥350)

COc1ccc(C2CCC2)c2c1[C@@H](C(=O)NS(=O)(=O)c1cccc3c1CCCN3)CO2 [Example 100, (3R)-7-cyclobutyl-4-methoxy-N-(1,2,3,4-tetrahydroquinoline-5-sulfonyl)-2,3-dihydro-1-benzofuran-3-carboxamide]
EC50 [1]: 3 to 10 µM | Emax [2]: 50 to 150% | EC50 [3]: 3 to 10 µM | Maximum % activity (with co-corrector): +++ (≥350)

COc1ccc(C2CCC2)c2c1[C@H](C(=O)NS(=O)(=O)c1cccc3c1CCCN3)CO2 [Example 101, (3S)-7-cyclobutyl-4-methoxy-N-(1,2,3,4-tetrahydroquinoline-5-sulfonyl)-2,3-dihydro-1-benzofuran-3-carboxamide]
EC50 [1]: < 3 µM | Emax [2]: ≥ 150% | EC50 [3]: < 3 µM | Maximum % activity (with co-corrector): +++ (≥350)

COc1ccc(C2CCC2)c2c1C(C(=O)NS(=O)(=O)c1cccc3[nH]ccc13)CCO2 (stereo not shown) [Example 102, 8-cyclobutyl-N-(1H-indole-4-sulfonyl)-5-methoxy-3,4-dihydro-2H-1-benzopyran-4-carboxamide]
EC50 [1]: < 3 µM | Emax [2]: ≥ 150% | EC50 [3]: < 3 µM | Maximum % activity (with co-corrector): +++ (≥350)

COc1ccc(C2CCC2)c2c1[C@@H](C(=O)NS(=O)(=O)c1cccc3[nH]ccc13)CCO2 [Example 103, (4S)-8-cyclobutyl-N-(1H-indole-4-sulfonyl)-5-methoxy-3,4-dihydro-2H-1-benzopyran-4-carboxamide]
EC50 [1]: 3 to 10 µM | Emax [2]: ≥ 150% | EC50 [3]: < 3 µM | Maximum % activity (with co-corrector): +++ (≥350)

COc1ccc(C2CCC2)c2c1[C@H](C(=O)NS(=O)(=O)c1cccc3[nH]ccc13)CCO2 [Example 104, (4R)-8-cyclobutyl-N-(1H-indole-4-sulfonyl)-5-methoxy-3,4-dihydro-2H-1-benzopyran-4-carboxamide]
EC50 [1]: < 3 µM | Emax [2]: ≥ 150% | EC50 [3]: < 3 µM | Maximum % activity (with co-corrector): +++ (≥350)

COc1ccc(C2CCC2)c2c1OCCC2C(=O)NS(=O)(=O)c1cccc2ncccc12 (stereo not shown) [Example 105, 5-cyclobutyl-8-methoxy-N-(quinoline-5-sulfonyl)-3,4-dihydro-2H-1-benzopyran-4-carboxamide]
EC50 [1]: 3 to 10 µM | Emax [2]: ≥ 150% | EC50 [3]: < 3 µM | Maximum % activity (with co-corrector): +++ (≥350)

COc1ccc(Br)c2c1CCOC2C(=O)NS(=O)(=O)c1cccc2ccccc12 (stereo not shown) [Example 108, 8-bromo-5-methoxy-N-(naphthalene-1-sulfonyl)-3,4-dihydro-1H-2-benzopyran-1-carboxamide]
EC50 [1]: 3 to 10 µM | Emax [2]: 50 to 150% | EC50 [3]: < 3 µM | Maximum % activity (with co-corrector): +++ (≥350)

O=C(NS(=O)(=O)c1cccc2ccccc12)C1OCCc2ccc(OC(F)(F)F)cc21 (stereo not shown) [Example 109, N-(naphthalene-1-sulfonyl)-7-(trifluoromethoxy)-3,4-dihydro-1H-2-benzopyran-1-carboxamide]
EC50 [3]: 3 to 10 µM | Maximum % activity (with co-corrector): ++ (≥150 and <350)

COc1cccc2c1CCOC2C(=O)NS(=O)(=O)c1cccc2ccccc12 (stereo not shown) [Example 110, 5-methoxy-N-(naphthalene-1-sulfonyl)-3,4-dihydro-1H-2-benzopyran-1-carboxamide]
EC50 [1]: ≥ 10 µM | Emax [2]: < 50% | EC50 [3]: 3 to 10 µM | Maximum % activity (with co-corrector): ++ (≥150 and <350)
